From US20110207726A1, “Inhibitors of Human Cathepsin L, Cathepsin B, and Cathepsin S” (The Trustees of the University of Pennsylvania, priority 2008, published 2011) come the findings set out here.

Read-outs that look alike come from different tables or passages of the source.

The target of data set [1] is T1, human liver cathepsin L (Homo sapiens, UniProt P07711).
T1 construct: 8.7 ng/mL human liver cathepsin L (Calbiochem 219402); purchased Calbiochem 219402; host or cells: human liver
The data set can be described thus: Cathepsin L assay, IC50 determination. The class given is biochemical. Put shortly:
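Enzyme (300 pM) pre-activated for 30 min in 20 mM sodium acetate, 1 mM EDTA, 5 mM cysteine, pH 5.5, then incubated 1 h at room temperature with 1 microM Z-Phe-Arg-AMC and compound. Fluorescent read-out on a microplate reader; IC50 in triplicate.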

The next data set addresses T2, Human liver cathepsin B (Homo sapiens, UniProt P07858).
T2 construct: Human liver cathepsin B (Calbiochem 219362, 65 ng/mL); purchased Calbiochem 219362; host or cells: human liver
The data set can be described thus: Cathepsin B assay, IC50 determination. The data set is classed as biochemical. The conditions noted are these: for Selectivity Index (IC50 Cat B)/(IC50 Cat L): Cathepsin B vs cathepsin L. The method, boiled down: (§1)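 Spleen cathepsin S (40 ng/mL) with 15 microM Z-Phe-Arg-AMC and liver cathepsin B (65 ng/mL) with 15 microM Z-Arg-Arg-AMC, in 20 mM sodium acetate, 1 mM EDTA, 5 mM cysteine, pH 5.5. AMC fluorescence release monitored; IC50 measured in triplicate.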

Another data set addresses T3, Human spleen cathepsin S (Homo sapiens, UniProt P25774).
T3 construct: Human spleen cathepsin S (Calbiochem 219344, 40 ng/mL); purchased Calbiochem 219344; host or cells: human spleen
The data set can be described thus: Cathepsin S assay, IC50 determination. The data set is classed as biochemical. The conditions noted are these: Tables 2-11; read-out: Cat S. Put shortly: as §1

Data set [2] concerns SARS coronavirus pseudotype. The data set can be described thus: microbe, parasite or virus in culture. The class given is cell-based. The following applies: read-out: IC50, SARS-CoV pseudotype entry.
The test system of a further data set is Ebola virus pseudotype. The data set can be described thus: microbe, parasite or virus in culture. The conditions noted are these: read-out: IC50, Ebola virus pseudotype entry. The data set is classed as cell-based.
Data set [3] concerns Vesicular stomatitis virus (VSV). The data set can be described thus: microbe, parasite or virus in culture. The data set is classed as cell-based. The following applies: read-out: IC50, VSV entry (control).
The subject of a further data set is zebrafish. The data set can be described thus: Zebrafish live organism toxicity assay. The conditions noted are these: at 100 μM.
Another data set has as its target human cathepsin L (Homo sapiens, UniProt P07711). The data set is described as follows: Preincubation studies, cathepsin L. The class given is biochemical. Also noted: 8.7 ng/mL human liver cathepsin L (Calbiochem 219402); purchased Calbiochem 219402; host or cells: human liver. The conditions noted are these: preincubation with enzyme 4 h; read-out: IC50 against human cathepsin L after 4 hours preincubation. Here is the method: To establish the time-dependent mechanism of inhibition, enzyme and inhibitor were preincubated for various time points in a 96-well microplate prior to the addition of substrate to initiate the enzymatic reaction. 47.5 μL of cathepsin L (18.3 ng/mL) and 47.5 μL of Compound No. 1 at various concentrations in assay buffer were incubated up to 4 hours. Five μL of Z-Phe-Arg-AMC substrate were then added and the plate was monitored for AMC hydrolysis on the Envision fluorescent microplate reader.

Data set [4] in a line: Stability in DMSO and cathepsin L assay buffer. The data set is classed as physicochemical. From the text:
Some variability in IC50 values determined for Compound (iii) prompted us to explore the stability of both Compound No. 1 and Compound (iii) in solvents relevant to the bioassay.

In data set [5] the target is T1, human liver cathepsin L. The data set is described as follows: HTS of MLSMR library and confirmatory dose response against cathepsin L. The class given is biochemical. The conditions noted are these: 10 μM compound. The method, then:
57,821 compounds from the NIH Molecular Libraries Small Molecule Repository (MLSMR) were screened against human liver cathepsin L. This screen was performed in 384-well Corning 3676 black, low-volume, non-binding surface (NBS)-coated polystyrene plates using a total reaction volume of 10 μL per well. Final well concentrations were: 10 μM compound (2% DMSO), 300 pM (8.7 ng/mL) human liver cathepsin L, 1 μM Z-FR-AMC substrate, and 20 mM sodium acetate buffer containing 1 mM EDTA and […], pH 5.5. Cathepsin L was activated in the assay buffer for 30 minutes prior to dispensing into wells. Assay plates were incubated at room temperature for one how and the fluorescence intensity of each well was read with a PerkinElmer Envision plate reader (Ex: 355 nm, Em: 460 nm) to measure hydrolysis of the AMC substrate.
Library samples containing 2,5-disubstituted oxadiazoles were identified as potent hits in a high throughput screen of the NIH Molecular Libraries Small Molecule Repository directed at discovering inhibitors of cathepsin L (Table I). […] Analyses by LC-MS of original library samples indicated the presence of a number of impurities, in addition to the oxadiazoles. Synthesis and bioassay of the probable impurities led to the identification of a thiocarbazate that likely originated via ring opening of the oxadiazole. […]

The mark [6] stands for this setting: no preincubation of enzyme and inhibitor, read-out: IC50 against cathepsin L (no preincubation).

T1 sequence (P07711 114-288 limits assumed): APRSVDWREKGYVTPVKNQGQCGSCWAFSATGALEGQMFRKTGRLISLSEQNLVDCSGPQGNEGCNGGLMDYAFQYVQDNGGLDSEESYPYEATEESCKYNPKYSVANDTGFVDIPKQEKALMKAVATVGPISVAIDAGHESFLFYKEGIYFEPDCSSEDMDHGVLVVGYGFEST
T1 sequence (P07711 292-333 limits assumed): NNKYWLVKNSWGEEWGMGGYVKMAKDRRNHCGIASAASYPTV
human cathepsin L, sequence (P07711 114-288 limits assumed): as the sequence (P07711 114-288 limits assumed) above
human cathepsin L, sequence (P07711 292-333 limits assumed): as the sequence (P07711 292-333 limits assumed) above
T3 sequence (P25774 115-331): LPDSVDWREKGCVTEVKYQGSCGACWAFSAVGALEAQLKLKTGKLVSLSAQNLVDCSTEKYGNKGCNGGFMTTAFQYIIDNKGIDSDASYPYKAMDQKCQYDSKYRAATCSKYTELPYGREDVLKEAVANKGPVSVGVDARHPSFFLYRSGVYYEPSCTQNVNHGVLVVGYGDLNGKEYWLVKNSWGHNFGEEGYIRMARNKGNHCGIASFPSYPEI

For `CC(C)(C)OC(=O)N[C@@H](Cc1c[nH]c2ccccc12)C(=O)NNC(=O)OCC(=O)N1CCCc2ccccc21` [Compound No. 96], the “Selectivity Index” value on human liver cathepsin L [1] (Table 18, Cathepsin L) came out at 1.0. The IC50 turned out to be 6 nM at human liver cathepsin L [1] (Tables 2-11, read-out: Cat L); 6.9 nM on human liver cathepsin L [1] (setting [6]); 5.07 ± 0.883 µM on Human liver cathepsin B (Table 18, Cathepsin B, human liver, no preincubation, read-out: IC50); 10.1 µM on Human liver cathepsin B (Tables 2-11, read-out: Cat B); 25 nM on Human spleen cathepsin S; 273 ± 49 nM in [2] (Severe acute respiratory syndrome coronavirus, HEK-293T). The IC50 in data set [2] was about 200 nM; in the data set on Ebola virus pseudotype (Zaire ebolavirus, HEK-293T) it was 193 ± 39 nM; in the data set on Ebola virus pseudotype, about 200 nM; in data set [3] (Vesicular stomatitis virus), at least 10 µM; in data set [3] it was over 10 µM; at human cathepsin L, 0.4 nM. For the same compound, the “Selectivity Index (IC50 Cat B)/(IC50 Cat L)” value at Human liver cathepsin B (no preincubation) is 724.6; at Human liver cathepsin B (no preincubation, listed as SID 46493575), 725. For the same compound, the toxicity to zebrafish result in the data set with zebrafish is recorded as “Non-toxic to zebrafish at 100 μM”.

Turning to `CCc1ccccc1NC(=O)CSC(=O)NNC(=O)[C@@H](N)Cc1c[nH]c2ccccc12` [Compound (iii)], on human liver cathepsin L [1] (setting [6]), the IC50 came to 133 nM. Further, the “stability in DMSO” value in data set [4] was “unstable”.

As for `CC(C)C[C@H](NC(=O)[C@H]1O[C@@H]1C(=O)O)C(=O)NCCCCN=C(N)N` [E-64], at human liver cathepsin L [5], the “HTS identification as cathepsin L inhibitor (in words)” value is listed as “potent inhibitors of cathepsin L”.

On to `CC(C)CCNC(=O)[C@H](CC(C)C)NC(=O)[C@H]1O[C@@H]1C(=O)O` [E-64c], for which the “HTS identification as cathepsin L inhibitor (in words)” value on human liver cathepsin L [5] is recorded as “potent inhibitors of cathepsin L”.
